Data taken from article PMC6150198, “Functional Characterization of a Hydroxyacid/Alcohol Hydroxycinnamoyl Transferase Produced by the Liverwort Marchantia emarginata” (Molecules : A Journal of Synthetic Chemistry and Natural …, 2017).

Test system: T1, MeHFT
T1 construct: ~71 kDa on gel), E. coli BL21(DE3), Ni-NTA; primers encode N-terminus MGAEEV and C-terminus EEAIKL; cDNA 1413 nt from transcriptome SRP078649
Experiment: HPLC of alkyl ferulate product, UV […] nm, Michaelis-Menten fit
Type: biochemical, Marchantia emarginata
Settings: 0.1 M Tris-HCl pH 7.5, 40 °C, 10 min

| SMILES | Km (acyl donor varied, 0.1 mM 1-decanol) [µM] | Km (acyl acceptor varied, 0.1 mM feruloyl-CoA) [µM] |
| --- | --- | --- |
| COc1cc(/C=C/C(=O)SCCNC(=O)CCNC(=O)[C@H](O)C(C)(C)COP(=O)(O)OP(=O)(O)OC[C@H]2O[C@@H](n3cnc4c(N)ncnc43)[C@H](O)[C@@H]2OP(=O)(O)O)ccc1O [Feruloyl-CoA] | 79.4 ± 10.9 | – |
| CCCCCCCCCCO [1-Decanol] | – | 65.5 ± 11.2 |
